Laboratory results: patent US9695155B2, “Herbicidal substituted pyrimidinyloxy benzene compounds” (E. I. DU PONT DE NEMOURS AND COMPANY, priority 2013, dated 2017)

Legend:
barnyardgrass [1] = assay: Test C preemergence; type: in vivo, Echinochloa crus-galli
In short: (§1)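 Sown in loam/sand → sprayed pre-emergence; or grown to 1–4 leaves in peat mix → sprayed post-emergence. Same solvent/surfactant formulation both ways. Greenhouse 13–15 d. Score 0–100 visual.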

Italian ryegrass [2] = assay: Test C preemergence; type: in vivo, Lolium multiflorum
In short: as §1

giant foxtail [3] = assay: Test A preemergence; type: in vivo, Setaria faberii
In short: (§2)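 Pre- and postemergence greenhouse screen. Soil: loam + sand. Spray carrier: solvent mixture, non-phytotoxic, with surfactant. Post timing at 1–2 leaves, height 2–10 cm. Readout: visual injury on a 0–100 scale roughly 10 days after application, untreated plants as reference.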

giant foxtail [4] = assay: Test A postemergence; type: in vivo, Setaria faberii; conditions: 0 to 100 scale where 0 is no effect and 100 is complete control
In short: as §2

johnsongrass = assay: Test C postemergence; type: in vivo, Sorghum halepense
In short: as §1

wheat, winter = assay: Test C preemergence; type: in vivo, Triticum aestivum
In short: as §1

Italian ryegrass [5] = assay: Test C postemergence; type: in vivo, Lolium multiflorum
In short: as §1

pigweed = assay: Test A postemergence; type: in vivo, Amaranthus retroflexus; conditions: 0 to 100 scale where 0 is no effect and 100 is complete control
In short: as §2

lambsquarters = assay: Test C preemergence; type: in vivo, Chenopodium album
In short: as §1

soybean = assay: Test C postemergence; type: in vivo, Glycine max
In short: as §1

blackgrass = assay: Test C preemergence; type: in vivo, Alopecurus myosuroides
In short: as §1

barnyardgrass [6] = assay: Test A postemergence; type: in vivo, Echinochloa crus-galli
In short: as §2

velvetleaf = assay: Test C preemergence; type: in vivo, Abutilon theophrasti
In short: as §1

Heteranthera limosa = assay: Test B flooded paddy test; type: in vivo; conditions: Flood, 250 g ai/ha, 0 to 100 scale where 0 is no effect and 100 is complete control
In short: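 Greenhouse flooded-pot test: compounds dosed into 3 cm standing water over 2-leaf plants, flood held constant. Rated visually after 13–15 days on 0–100 (complete control = 100); a dash marks no test result.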

[7] = 16 g ai/ha, preemergence, scale 0 to 100 (0 no effect, 100 complete control)
[8] = 62 g ai/ha, preemergence, scale 0 (no effect) to 100 (complete control)
[9] = 125 g ai/ha, preemergence, scale 0 (no effect) to 100 (complete control)
[10] = Preemergence, 31 g ai/ha, scale 0 to 100, 0 no effect, 100 complete control
[11] = 125 g ai/ha, 0 to 100 scale where 0 is no effect and 100 is complete control
[12] = Postemergence, 31 g ai/ha, scale 0 to 100 (0 no effect, 100 complete control), 13 to 15 days
[13] = Postemergence, 62 g ai/ha, scale 0 to 100 (0 no effect, 100 complete control)

FC(F)(F)COc1cnn(-c2ccccc2Oc2ncc(Cl)cn2)c1 [Compound 138, 5-chloro-2-[2-[4-(2,2,2-trifluoroethoxy)-1H-pyrazol-1-yl]phenoxy]pyrimidine]
pest or weed control at 16 g/ha (barnyardgrass [1]; Echinochloa crus-galli, pre-emergence, 16 g ai/ha, preemergence, scale 0 to 100 (0 no effect, 100 complete control), read-out: Barnyardgrass plant response rating): 10%
pest or weed control at 62 g/ha (barnyardgrass [1]; Echinochloa crus-galli, pre-emergence, 62 g ai/ha, preemergence, scale 0 (no effect) to 100 (complete control), read-out: Barnyardgrass plant response rating): 65%
pest or weed control at 125 g/ha (barnyardgrass [1]; Echinochloa crus-galli, pre-emergence, 125 g ai/ha, preemergence, scale 0 (no effect) to 100 (complete control), read-out: Barnyardgrass plant response rating): 95%
pest or weed control at 31 g/ha (barnyardgrass [1]; Echinochloa crus-galli, pre-emergence, Preemergence, 31 g ai/ha, scale 0 to 100, 0 no effect, 100 complete control, read-out: Plant response rating, Barnyardgrass): 25%
pest or weed control at 16 g/ha (Italian ryegrass [2]; Lolium multiflorum, pre-emergence, 16 g ai/ha, preemergence, scale 0 to 100 (0 no effect, 100 complete control), read-out: Ryegrass, Italian plant response rating): 0%
pest or weed control at 62 g/ha (Italian ryegrass [2]; Lolium multiflorum, pre-emergence, 62 g ai/ha, preemergence, scale 0 (no effect) to 100 (complete control), read-out: Ryegrass, Italian plant response rating): 20%
pest or weed control at 125 g/ha (Italian ryegrass [2]; Lolium multiflorum, pre-emergence, 125 g ai/ha, preemergence, scale 0 (no effect) to 100 (complete control), read-out: Ryegrass, Italian plant response rating): 60%
pest or weed control at 125 g/ha (giant foxtail [3]; Setaria faberi, pre-emergence, 240 h, 125 g ai/ha, 0 to 100 scale where 0 is no effect and 100 is complete control, read-out: Plant response rating, Foxtail, Giant): 90%
pest or weed control at 500 g/ha (giant foxtail [3]; Setaria faberi, pre-emergence, 240 h, 500 g ai/ha, 0 to 100 scale where 0 is no effect and 100 is complete control, read-out: Foxtail, Giant plant response rating): 100%
pest or weed control at 125 g/ha (giant foxtail [4]; Setaria faberi, post-emergence, 240 h, 125 g ai/ha, read-out: Foxtail, Giant plant response rating): 90%
pest or weed control at 500 g/ha (giant foxtail [4]; Setaria faberi, post-emergence, 240 h, 500 g ai/ha, read-out: Plant response rating, Foxtail, Giant): 100%
pest or weed control at 16 g/ha (johnsongrass; Sorghum halepense, post-emergence, 16 g ai/ha, postemergence, 0 is no effect, 100 is complete control, read-out: Plant response rating (0 to 100), Johnsongrass): 5%
pest or weed control at 125 g/ha (johnsongrass; Sorghum halepense, post-emergence, 125 g ai/ha, postemergence, visual rating, scale 0 to 100 (0 no effect, 100 complete control), read-out: Plant response rating, Johnsongrass): 10%
pest or weed control at 62 g/ha (johnsongrass; Sorghum halepense, post-emergence, Postemergence, 62 g ai/ha, scale 0 to 100 (0 no effect, 100 complete control), read-out: Plant response rating, Johnsongrass): 5%
plant injury at 16 g/ha (wheat, winter; Triticum aestivum, pre-emergence, 16 g ai/ha, preemergence, scale 0 to 100 (0 no effect, 100 complete control), read-out: Wheat plant response rating): 0%
plant injury at 62 g/ha (wheat, winter; Triticum aestivum, pre-emergence, 62 g ai/ha, preemergence, scale 0 (no effect) to 100 (complete control), read-out: Wheat plant response rating): 5%
plant injury at 125 g/ha (wheat, winter; Triticum aestivum, pre-emergence, 125 g ai/ha, preemergence, scale 0 (no effect) to 100 (complete control), read-out: Wheat plant response rating): 5%
pest or weed control at 16 g/ha (Italian ryegrass [5]; Lolium multiflorum, post-emergence, 16 g ai/ha, postemergence, 0 is no effect, 100 is complete control, read-out: Plant response rating (0 to 100), Ryegrass, Italian): 0%
pest or weed control at 125 g/ha (Italian ryegrass [5]; Lolium multiflorum, post-emergence, 125 g ai/ha, postemergence, visual rating, scale 0 to 100 (0 no effect, 100 complete control), read-out: Plant response rating, Ryegrass, Italian): 5%
pest or weed control at 62 g/ha (Italian ryegrass [5]; Lolium multiflorum, post-emergence, Postemergence, 62 g ai/ha, scale 0 to 100 (0 no effect, 100 complete control), read-out: Plant response rating, Ryegrass, Italian): 0%
pest or weed control at 500 g/ha (pigweed; Amaranthus retroflexus, post-emergence, 500 g ai/ha, read-out: Plant response rating, Pigweed): 100%
pest or weed control at 125 g/ha (pigweed; Amaranthus retroflexus, post-emergence, 240 h, 125 g ai/ha, read-out: Pigweed plant response rating): 100%
pest or weed control at 16 g/ha (lambsquarters; Chenopodium album, pre-emergence, 16 g ai/ha, preemergence, scale 0 to 100 (0 no effect, 100 complete control), read-out: Lambsquarters plant response rating): 100%
pest or weed control at 62 g/ha (lambsquarters; Chenopodium album, pre-emergence, 62 g ai/ha, preemergence, scale 0 (no effect) to 100 (complete control), read-out: Lambsquarters plant response rating): 100%
pest or weed control at 125 g/ha (lambsquarters; Chenopodium album, pre-emergence, 125 g ai/ha, preemergence, scale 0 (no effect) to 100 (complete control), read-out: Lambsquarters plant response rating): 100%
Soybean plant response rating (crop injury, 0-100 scale) at 16 g/ha (soybean; Glycine max, post-emergence, 16 g ai/ha, postemergence, 0 is no effect, 100 is complete control): 40%
Soybean plant response rating (crop injury, 0-100 scale) at 125 g/ha (soybean; Glycine max, post-emergence, 125 g ai/ha, postemergence, visual rating, scale 0 to 100 (0 no effect, 100 complete control), read-out: Plant response rating, Soybean): 95%
Soybean plant response rating (crop injury, 0-100 scale) at 62 g/ha (soybean; Glycine max, post-emergence, Postemergence, 62 g ai/ha, scale 0 to 100 (0 no effect, 100 complete control)): 65%
pest or weed control at 16 g/ha (blackgrass; Alopecurus myosuroides, pre-emergence, 16 g ai/ha, preemergence, scale 0 to 100 (0 no effect, 100 complete control), read-out: Blackgrass plant response rating): 5%
pest or weed control at 62 g/ha (blackgrass; Alopecurus myosuroides, pre-emergence, 62 g ai/ha, preemergence, scale 0 (no effect) to 100 (complete control), read-out: Blackgrass plant response rating): 80%
pest or weed control at 125 g/ha (blackgrass; Alopecurus myosuroides, pre-emergence, 125 g ai/ha, preemergence, scale 0 (no effect) to 100 (complete control), read-out: Blackgrass plant response rating): 90%
pest or weed control at 31 g/ha (blackgrass; Alopecurus myosuroides, pre-emergence, Preemergence, 31 g ai/ha, scale 0 to 100, 0 no effect, 100 complete control, read-out: Plant response rating, Blackgrass): 20%
pest or weed control at 125 g/ha (barnyardgrass [6]; Echinochloa crus-galli, post-emergence, 240 h, 125 g ai/ha, 0 to 100 scale where 0 is no effect and 100 is complete control, read-out: Barnyardgrass plant response rating): 80%
pest or weed control at 500 g/ha (barnyardgrass [6]; Echinochloa crus-galli, post-emergence, 240 h, 500 g ai/ha, 0 to 100 scale where 0 is no effect and 100 is complete control, read-out: Plant response rating, Barnyardgrass): 100%
pest or weed control at 16 g/ha (velvetleaf; Abutilon theophrasti, pre-emergence, 16 g ai/ha, preemergence, scale 0 to 100 (0 no effect, 100 complete control), read-out: Velvetleaf plant response rating): 60%
pest or weed control at 62 g/ha (velvetleaf; Abutilon theophrasti, pre-emergence, 62 g ai/ha, preemergence, scale 0 (no effect) to 100 (complete control), read-out: Velvetleaf plant response rating): 98%
pest or weed control at 125 g/ha (velvetleaf; Abutilon theophrasti, pre-emergence, 125 g ai/ha, preemergence, scale 0 (no effect) to 100 (complete control), read-out: Velvetleaf plant response rating): 100%
pest or weed control at 250 g/ha (Heteranthera limosa; Heteranthera limosa, read-out: Plant response rating, Ducksalad): 90%

FCc1cccc(Oc2ncc(Cl)cn2)c1-n1cc(Br)cn1 [Compound 83]
Barnyardgrass plant response rating (barnyardgrass [1]; [7]): 5
Barnyardgrass plant response rating (barnyardgrass [1]; [8]): 45
Barnyardgrass plant response rating (barnyardgrass [1]; [9]): 90
Plant response rating, Barnyardgrass (barnyardgrass [1]; [10]): 5
Ryegrass, Italian plant response rating (Italian ryegrass [2]; [7]): 0
Ryegrass, Italian plant response rating (Italian ryegrass [2]; [8]): 30
Ryegrass, Italian plant response rating (Italian ryegrass [2]; [9]): 50
Plant response rating, Ryegrass, Italian (Italian ryegrass [2]; [10]): 0
Plant response rating, Foxtail, Giant (giant foxtail [3]; [11]): 100
Foxtail, Giant plant response rating (giant foxtail [3]; 500 g ai/ha, 0 to 100 scale, 0 no effect, 100 complete control, approx. 10 days): 100
Plant response rating, Foxtail, Giant (giant foxtail [4]; 125 g ai/ha): 90
Plant response rating, Foxtail, Giant (giant foxtail [4]; 500 g ai/ha): 100
Johnsongrass plant response rating (johnsongrass; 16 g ai/ha, postemergence, visual rating, scale 0 to 100 (0 no effect, 100 complete control), 13 to 15 days): 0
Plant response rating (0 to 100), Johnsongrass (johnsongrass; 125 g ai/ha, postemergence): 10
Plant response rating, Johnsongrass (johnsongrass; [12]): 0
Plant response rating, Johnsongrass (johnsongrass; [13]): 10
Wheat plant response rating (wheat, winter; [7]): 0
Wheat plant response rating (wheat, winter; [8]): 0
Wheat plant response rating (wheat, winter; [9]): 0
Plant response rating, Wheat (wheat, winter; [10]): 0
Plant response rating (0 to 100), Ryegrass, Italian (Italian ryegrass [5]; 125 g ai/ha, postemergence): 5
Plant response rating, Ryegrass, Italian (Italian ryegrass [5]; [12]): 0
Plant response rating, Ryegrass, Italian (Italian ryegrass [5]; [13]): 5
Plant response rating, Pigweed (pigweed; 125 g ai/ha): 100
Plant response rating, Pigweed (pigweed; 500 g ai/ha): 100
Lambsquarters plant response rating (lambsquarters; [7]): 100
Lambsquarters plant response rating (lambsquarters; [8]): 100
Lambsquarters plant response rating (lambsquarters; [9]): 100
Plant response rating, Lambsquarters (lambsquarters; [10]): 100
Plant response rating (0 to 100), Soybean (soybean; 125 g ai/ha, postemergence): 90
Plant response rating, Soybean (soybean; [12]): 60
Plant response rating, Soybean (soybean; [13]): 70
Blackgrass plant response rating (blackgrass; [7]): 0
Blackgrass plant response rating (blackgrass; [8]): 90
Blackgrass plant response rating (blackgrass; [9]): 85
Plant response rating, Blackgrass (blackgrass; [10]): 5
Plant response rating, Barnyardgrass (barnyardgrass [6]; [11]): 90
Plant response rating, Barnyardgrass (barnyardgrass [6]; 500 g ai/ha, 0 to 100 scale, 0 no effect, 100 complete control): 100
Velvetleaf plant response rating (velvetleaf; [7]): 60
Velvetleaf plant response rating (velvetleaf; [8]): 100
Velvetleaf plant response rating (velvetleaf; [9]): 100
Plant response rating, Velvetleaf (velvetleaf; [10]): 100
Plant response rating, Ducksalad (Heteranthera limosa): 45
